Source: patent US20030206953A1, “Aggregates of spherical multivalent metal alginate microparticles and methods of making them” (priority 1997, published 2003)
Converted amounts (≈) assume the structure as drawn.

Experiments:
physchem = settings: 20 °C, water, thermodynamic from solid
Experimental: (§1) As used herein, the term “solubility” in accordance with the Japanese Pharmacopoeia (the 13th Amendment) refers to the degree of dissolution of a medicament in a solvent within 30 minutes when 1 g of the medicament is added to the solvent and mixing them with vigorous shaking at intervals of 5 minutes at 20° C.±5° C. In the present specification, the solubility is evaluated in accordance with this method. When the amount (ml) of water required to dissolve 1 g of a medicament is 30 ml or more, the solubility of the medicament represents the grades of “slightly soluble” or “hardly soluble”.

[1] = Solubility in water per Japanese Pharmacopoeia (13th Amendment); settings: 20 °C, thermodynamic from solid
Experimental: as §1

[2] = Dissolution test, paddle method, second solution (artificial intestinal juice, pH 6.8); assay type: physicochemical; settings: artificial intestinal juice (second solution, pH 6.8); within two hours; FIG. 3
Text: As used herein, the term “artificial intestinal juice (the second solution, pH 6.8)” refers to a phosphate buffer of pH 6.8 as described in the Japanese Pharmacopoeia (the 13th Amendment), the section of dissolution test, the second method (paddle method). As used herein, the term “dissolution rate” refers to a value given by dividing the actual elution concentration of a slightly soluble medicament by the calculated elution concentration and expressing the resultant value as a percent. Here, the term “calculated elution concentration” refers to the concentration given when hypothesizing that the entire slightly soluble medicament added to the second solution is dissolved. For example, the calculated elution concentration of a slightly soluble medicament given when 5 g of the medicament is added to 500 ml of the second solution is 10 mg/ml. In this case, when the actual elution concentration is 5 mg/ml, the dissolution rate is 50%.
In general, the dissolution rate of a slightly soluble medicament by itself is slow in the artificial intestinal juice, and the saturated dissolution amount is small. Therefore, the saturated dissolution concentration tends to be smaller than the calculated concentration. […]

Row | solubility at 30 min (physchem) | solubility at 30 min [1] | dissolution rate [2] | Structure (SMILES)
1 | 13100 µg/mL (≈ 86.7 mM) |  |  | CC(=O)Nc1ccc(O)cc1 [Acetaminophen, acetaminophen]
2 |  | 3630 µg/mL (≈ 20.1 mM) |  | CC(=O)Oc1ccccc1C(=O)O [Aspirin, aspirin]
3 |  | < 100 µg/mL |  | CCOc1ccccc1C(N)=O [Ethenzamide]
4 | < 100 µg/mL |  | less than 40% | COc1ccc2c(c1)c(CC(=O)O)c(C)n2C(=O)c1ccc(Cl)cc1 [Indomethacin, indomethacin]
